“And” between values parts separate entries of the source, which are not always exact repeats. Identical values can stand only once.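 Results reflect a 48-hour exposure of cells in 96-well plates to compound at five concentrations. Abbreviation: GI50, concentration required for 50% inhibition of growth. TGI: concentration producing complete growth inhibition.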
Key:
Experiment in all cases: NCI anticancer screen, dose series, 48 h
[1] = system: HCC-2998 colon
[2] = system: HCT-116 colon
[3] = system: HOP-62 NSCLC
[4] = system: KM12 colon
[5] = system: LOX IMVI melanoma
[6] = system: MALME-3M melanoma
[7] = system: SK-MEL-2 melanoma
[8] = system: SK-OV-3 ovarian
[9] = system: SN12C renal
[10] = system: SR leukemia

SMILES | GI50 [1] | TGI [1] | GI50 [2] | TGI [2] | GI50 [3] | TGI [3] | GI50 [4] | TGI [4] | GI50 [5] | TGI [5] | GI50 [6] | TGI [6] | GI50 [7] | TGI [7] | GI50 [8] | TGI [8] | GI50 [9] | TGI [9] | GI50 [10] | TGI [10] [nM]
O=C(Nc1cc(C(F)(F)F)cc(C(F)(F)F)c1)c1cc(Cl)ccc1O | 307 nM and 349 nM | 1330 nM and 3630 nM | 213 nM and 238 nM | 999 nM and 1160 nM | 260 nM and 355 nM | 1200 nM and 4380 nM | 318 nM and 312 nM | 1140 nM and 1120 nM | 316 nM and 366 nM | 1510 nM and 2680 nM | 225 nM and 200 nM | 1160 nM and 668 nM | 209 nM and 206 nM | 589 nM and 981 nM | 185 nM and 181 nM | 642 nM and 947 nM | 224 nM and 202 nM | > 2730 nM and 1540 nM | 218 nM and 228 nM | –
Clc1cc2c(c(CSc3nc4ccccc4n4cccc34)c1)OCOC2 | > 100000 nM | > 100000 nM | > 100000 nM | > 100000 nM | 10300 nM | 31800 nM | > 100000 nM | > 100000 nM | > 100000 nM | > 100000 nM | 29600 nM | > 100000 nM | 13600 nM | 44900 nM | 13700 nM | 45000 nM | > 100000 nM | > 100000 nM | > 100000 nM | > 100000
O=C(Nc1ccc(Br)cc1F)c1cc(Cl)ccc1O | 2790 nM | 12700 nM | 522 nM | 2450 nM | 1640 nM | 5220 nM | 2140 nM | 5430 nM | 501 nM | 3760 nM | 434 nM | 2670 nM | 372 nM | 2000 nM | 441 nM | 2200 nM | 491 nM | 5680 nM | 541 nM | > 30100
CC(C)C1=Cc2ccc3c(c2C(=O)C1=O)CCCC3(C)C | – | 32700 nM | – | 3330 nM | – | 37000 nM | – | 33100 nM | – | 24700 nM | – | 10500 nM | – | 34600 nM | – | 32000 nM | – | 13900 nM | – | 6480
O=c1oc2ccc(-c3ccc(F)cc3F)cc2c(=O)n1-c1cccc(C(F)(F)F)c1 | 2640 nM | 7940 nM | 1330 nM | 3450 nM | 1730 nM | 4570 nM | 2090 nM | 5630 nM | 1610 nM | 5550 nM | 785 nM | 4740 nM | 550 nM | 2850 nM | 1020 nM | 4540 nM | 1000 nM | 10400 nM | 1310 nM | 6250
COC(=O)C1CCCC2(C1)OCCO2 (centres undefined) | – | > 100000 nM | – | > 100000 nM | – | > 100000 nM | – | > 100000 nM | – | > 100000 nM | – | > 100000 nM | – | > 100000 nM | – | > 100000 nM | – | > 100000 nM | – | > 100000
CCOc1ccc(/C=C2\N=C(c3ccc([N+](=O)[O-])cc3)OC2=O)cc1 | – | > 100000 nM | – | > 100000 nM | – | > 100000 nM | – | > 100000 nM | – | > 100000 nM | – | > 100000 nM | – | > 100000 nM | – | > 100000 nM | – | > 100000 nM | – | > 100000
COc1ccc2nc3ccccc3c(NCc3ccc(F)cc3)c2c1 | 1000 nM | 2100 nM | 1750 nM | 6500 nM | 2340 nM | 10900 nM | 2420 nM | 8880 nM | 841 nM | 1710 nM | 1460 nM | 5380 nM | 3190 nM | 10400 nM | 2790 nM | 10400 nM | 1830 nM | 7320 nM | 1790 nM | 5750
N#C/C(=C\c1ccc2ccccc2c1)C(=O)c1ccccc1 | – | > 100000 nM | – | > 80400 nM | – | 51400 nM | – | > 100000 nM | – | 52000 nM | – | > 100000 nM | – | > 100000 nM | – | > 100000 nM | – | > 87200 nM | – | > 100000
CC(NCCC(c1ccccc1)c1ccccc1)c1ccccc1 (centres undefined) | 1600 nM | 3070 nM | 1660 nM | 3080 nM | 1360 nM | 3310 nM | 2060 nM | 4850 nM | 1590 nM | 2930 nM | 1750 nM | 3440 nM | 1900 nM | 3770 nM | 1650 nM | 3810 nM | 2420 nM | 9130 nM | 1920 nM | 5260
COc1ccc(-c2ccc(=O)oc2C#Cc2cc(OC)c(OC)c(OC)c2)cc1O | 265 nM | > 100000 nM | 249 nM | > 91900 nM | 1650 nM | > 100000 nM | 759 nM | > 100000 nM | 399 nM | > 100000 nM | 2660 nM | > 92600 nM | 1310 nM | > 22100 nM | 318 nM | 5650 nM | 665 nM | > 100000 nM | 70.8 nM | > 100000
C[C@@H]1C[C@@H]([C@@H](CC2CC(=O)NC(=O)C2)OC(=O)CC(=O)c2ccccc2)C(=O)[C@@H](C)C1 | 373 nM | > 26500 nM | 489 nM | > 45200 nM | 990 nM | > 100000 nM | 888 nM | 70600 nM | 646 nM | > 100000 nM | 496 nM | 13600 nM | 880 nM | 22800 nM | 411 nM | > 43700 nM | 150 nM | > 39300 nM | 2010 nM | > 100000
CCN1CCN(c2cc(C)c3cc(NC(=O)c4ccc(OC)c(OC)c4)ccc3n2)CC1 | > 57300 nM | > 100000 nM | 3160 nM | > 100000 nM | > 37000 nM | > 57700 nM | 3480 nM | > 86300 nM | 9360 nM | 24300 nM | 13300 nM | 31300 nM | > 40500 nM | > 61800 nM | > 30100 nM | > 73300 nM | > 100000 nM | > 100000 nM | 1440 nM | > 30500
CC12CCC(=O)C[C@H]1CCC(OC=O)C2Br (some centres undefined) | – | > 100000 nM | – | > 100000 nM | – | > 100000 nM | – | > 100000 nM | – | > 100000 nM | – | > 100000 nM | – | > 100000 nM | – | > 100000 nM | – | > 100000 nM | – | > 100000

From PubChem BioAssay (NCI)
